Data: ChEMBL document CHEMBL1155088, “A new sesquiterpene lactone from the roots of Saussurea lappa: structure-anticancer activity study” (Bioorg Med Chem Lett, 2008)
Converted amounts (≈) assume the structure as drawn. The source made the active and inactive calls. The calls are words filed in the database; no cut-off is given here.

Experiments:
Assay type in all cases: functional, cell-based
[1] = tested on: COLO 205; assay: Cytotoxicity against human COLO205 cells after 48 hrs by MTT assay; conditions: for IC50: COLO 205, 48 h
[2] = tested on: A-431; assay: Cytotoxicity against human A431 cells after 48 hrs by MTT assay
[3] = tested on: MCF7; assay: Cytotoxicity against human MCF7 cells after 48 hrs by MTT assay; conditions: MCF7, 48 h
[4] = tested on: A549; assay: Cytotoxicity against human A549 cells after 48 hrs by MTT assay

Structure (SMILES) | IC50 [1] [µg/mL] | Activity [2] | IC50 [3] [µg/mL] | Activity [4] | IC50 ([2]; A-431, 48 h) [µg/mL] | IC50 ([4]; A549, 48 h) [µg/mL] | Activity [1]
C/C1=C\[C@H]2OC(=O)[C@@H](C)[C@@H]2CC/C(C)=C/CC1 [DIHYDRO COSTUNOLIDE] | 134 (≈ 572 µM) | inactive | 57.9 (≈ 247 µM) | inactive |  |  | 
C=C1C(=O)O[C@@H]2/C=C(\C)CCC[C@H](C)CC[C@H]12 [ISODIHYDROCOSTUNOLIDE] | 27 (≈ 115 µM) |  | 35 (≈ 150 µM) |  | 107 (≈ 457 µM) | 125 (≈ 533 µM) | 
COC[C@@H]1C(=O)O[C@H]2[C@H]1CC[C@@]1(C)CCCC3(OCOO3)[C@H]21 (some centres undefined) |  | inactive | 180 (≈ 577 µM) | inactive |  |  | inactive
COC[C@@H]1C(=O)O[C@@H]2/C=C(\C)CC/C=C(\C)CC[C@@H]12 | 220 (≈ 832 µM) | inactive | 75 (≈ 284 µM) | inactive |  |  | 
C=C1CCC[C@]2(C)CC[C@@H]3[C@H](OC(=O)[C@H]3COC)[C@@H]12 | 110 (≈ 415 µM) | inactive | 88.5 (≈ 335 µM) | inactive |  |  | 
COC[C@@H]1C(=O)O[C@H]2[C@H]1CC[C@@]1(C)CCCC(=O)[C@H]21 |  | inactive | 103 (≈ 388 µM) | inactive |  |  | inactive
